22 compounds from paper PMC3601546 (Bioorganic & medicinal chemistry letters, 2012) can be followed below.

A value given as a limit tells only on which side of the number the result lay.

One series concerns the target T1, human NPBWR1 (Homo sapiens, UniProt P48145).
T1 sequence (P48145 1-328): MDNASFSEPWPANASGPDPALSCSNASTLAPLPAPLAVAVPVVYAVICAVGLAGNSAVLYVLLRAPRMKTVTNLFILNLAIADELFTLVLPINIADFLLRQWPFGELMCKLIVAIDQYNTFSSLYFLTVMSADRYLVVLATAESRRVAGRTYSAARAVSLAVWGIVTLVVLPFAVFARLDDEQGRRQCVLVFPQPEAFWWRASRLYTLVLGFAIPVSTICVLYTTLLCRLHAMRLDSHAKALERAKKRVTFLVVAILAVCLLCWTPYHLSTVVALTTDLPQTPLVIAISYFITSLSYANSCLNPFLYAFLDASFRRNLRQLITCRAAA
Briefly: NPBWR1 antagonist calcium release. The class given is cell-based. The following applies: for fold less potent than 1j: ratio of NPBWR1 IC50 vs 1j; for fold more potent than the hit 1a: ratio of NPBWR1 IC50 vs 1a.

The subject of series [1] is Ricerca panel of 35 therapeutically relevant off-target proteins including GPCRs, enzymes and ion channels. Briefly: Selectivity profile against Ricerca panel of 35 off-target proteins. The following applies: at 10 μM.
Another series deals with HT29 cells. Briefly: Viability assay on HT29 cells. The class given is cell-based. The conditions noted are these: final tested concentration of 20 μM.

`COC(=O)c1nn(-c2ccc(C(C)C)cc2)c(=O)c(Oc2ccc(OC)cc2)c1Cl` [9u]: on human NPBWR1, the “fold less potent than 1j” value is on record as 13 fold. On to `Cc1ccc(-n2ncc(Cl)c(Oc3ccc(C(F)(F)F)cc3)c2=O)cc1` [6e], for which the “fold more potent than the hit 1a” value on human NPBWR1 is 2- to 3 fold. `COc1ccc(Oc2c(C=O)cnn(-c3ccc(C(C)C)cc3)c2=O)cc1` [9j]: the “fold less potent than 1j” value on human NPBWR1 was ~ 23 fold. Same read-out and setting: as for `CC(C)c1ccc(-n2ncc(Cl)c(Oc3ccc(OC(F)(F)F)cc3)c2=O)cc1` [6j], the figure is around 45 fold; as for `COc1ccc(Oc2c(CO)cnn(-c3ccc(C(C)C)cc3)c2=O)cc1` [9k], ~ 21 fold.

In the case of `COc1ccc(Oc2c(NC(C)=O)cnn(-c3ccc(C(C)C)cc3)c2=O)cc1` [9q], the “NPBWR1 antagonist activity in words” value on human NPBWR1 is “Total loss of potency”. Same read-out and setting: as for `COc1ccc(Oc2c(Cl)c(C(=O)O)nn(-c3ccc(C(C)C)cc3)c2=O)cc1` [9t], the entry is “Total loss of activity”.

With `COc1ccc(Oc2c(C#N)cnn(-c3ccc(C(C)C)cc3)c2=O)cc1` [9l], the “fold less potent than 1j” value on human NPBWR1 was ~ 15 fold.

Consider `C=Cc1cnn(-c2ccc(C(C)C)cc2)c(=O)c1Oc1ccc(OC)cc1` [9h], for which the “fold less potent than 1j” value on human NPBWR1 is listed as around 9 fold.

With `COc1ccc(Oc2c(C(=O)O)cnn(-c3ccc(C(C)C)cc3)c2=O)cc1` [9m], at human NPBWR1, the “NPBWR1 antagonist activity in words” value is “inactive”. `COc1ccc(Oc2c(Cl)cnn(-c3ccc(C)c(C)c3)c2=O)cc1` [1s]: at human NPBWR1, the “fold more potent than the hit 1a” value is recorded as “~ fourfold”.

For the compound `COc1ccc(Oc2c(C)cnn(-c3ccc(C(C)C)cc3)c2=O)cc1` [9g], the “fold less potent than 1j” value on human NPBWR1 is listed as ~ 28 fold.

Take `COc1ccc(Oc2c(Cl)cnn(-c3cc(C)cc(C)c3)c2=O)cc1` [1z, 5-chloro-2-(3,5-dimethylphenyl)-4-(4-methoxyphenoxy)pyridazin-3(2H)-one]: in series [1], the “stimulation/inhibition against the pool of tested off-targets” value is on record as below 50%. In addition, the “cytotoxicity in viability assay” value in the series on HT29 cells is reported as “non cytotoxic”. Regarding `CC(C)c1ccc(-n2ncc(Cl)c(Oc3ccc(O)cc3)c2=O)cc1` [6i], the “fold less potent than 1j” value on human NPBWR1 is reported as ~ 18 fold. The same measure, in the same setting: next, `CC(C)c1ccc(-n2ncc(Cl)c(Oc3ccc(C(=O)CN)cc3)c2=O)cc1` [6l]: “eightfold”. Regarding `COc1ccc(Oc2c(Cl)c(OC)nn(-c3cccc(C)c3)c2=O)cc1` [9r], the “fold decrease in potency compared to 1t” value on human NPBWR1 (ratio of NPBWR1 IC50 vs 1t) was ~ 3.5 fold. Take `COc1ccc(Oc2c(N)cnn(-c3ccc(C(C)C)cc3)c2=O)cc1` [9p]: the “NPBWR1 antagonist activity in words” value on human NPBWR1 is listed as “Total loss of potency”. `COc1ccc(Oc2c(C3CC3)cnn(-c3ccc(C)cc3)c2=O)cc1` [9f]: the “fold loss in potency compared to 9a” value at human NPBWR1 (ratio of NPBWR1 IC50 vs 9a) is “~ eightfold”. In the case of `COc1ccc(Oc2c(-c3ccccc3)cnn(-c3ccc(C)cc3)c2=O)cc1` [9d], the “NPBWR1 antagonist activity in words” value on human NPBWR1 was “drastic loss in potency”. Turning to `COC(=O)c1cnn(-c2ccc(C(C)C)cc2)c(=O)c1Oc1ccc(OC)cc1` [9n], the “fold less potent than 1j” value at human NPBWR1 came out at 10 fold. With `CCOC(=O)c1nn(-c2ccc(C(C)C)cc2)c(=O)c(Oc2ccc(OC)cc2)c1Cl` [9s], at human NPBWR1, the “fold less potent than 1j” value was 13 fold. Take `COc1ccc(Oc2ccnn(-c3ccc(C(C)C)cc3)c2=O)cc1` [9o]: the “NPBWR1 antagonist activity in words” value at human NPBWR1 is listed as “Total loss of potency”.
